Values joined by “and” are separate entries in the source; they are usually repeats but may differ in a detail not shown here. Equal entries are not always repeated.
Tests used:
[1] = target: T1, hCB1 (Homo sapiens, UniProt P21554); experiment: bioSensAll ebBRET signaling profiling, hCB1; type: cell-based; set-up: host or cells: HEK293SL cells, transient PEI transfection; conditions: for Gi1 hCB1 / GoB hCB1: single replicate values, FigS6a; for Emax [95% CI]: normalized to CP-55,940; for EC50: read-out: EC50 [95% CI]
T1 sequence (P21554 whole entry): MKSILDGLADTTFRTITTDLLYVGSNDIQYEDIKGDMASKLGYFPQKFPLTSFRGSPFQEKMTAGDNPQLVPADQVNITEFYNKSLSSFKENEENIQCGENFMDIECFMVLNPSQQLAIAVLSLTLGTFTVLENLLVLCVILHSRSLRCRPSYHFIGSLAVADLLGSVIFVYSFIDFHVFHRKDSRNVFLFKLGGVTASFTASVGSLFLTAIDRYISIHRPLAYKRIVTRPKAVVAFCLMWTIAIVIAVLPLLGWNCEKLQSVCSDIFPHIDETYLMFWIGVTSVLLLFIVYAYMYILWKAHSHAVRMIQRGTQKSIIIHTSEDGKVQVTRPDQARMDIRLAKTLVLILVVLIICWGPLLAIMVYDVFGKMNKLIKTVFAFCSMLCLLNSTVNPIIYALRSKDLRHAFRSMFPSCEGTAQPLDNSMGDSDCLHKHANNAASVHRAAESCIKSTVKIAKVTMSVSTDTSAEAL

[2] = target: CB1 (rCB1) (Rattus norvegicus, UniProt P20272); experiment: Radioligand competition binding, [3H]-CP-55,940, rat brain membranes
CB1 (rCB1), sequence (P20272 whole entry): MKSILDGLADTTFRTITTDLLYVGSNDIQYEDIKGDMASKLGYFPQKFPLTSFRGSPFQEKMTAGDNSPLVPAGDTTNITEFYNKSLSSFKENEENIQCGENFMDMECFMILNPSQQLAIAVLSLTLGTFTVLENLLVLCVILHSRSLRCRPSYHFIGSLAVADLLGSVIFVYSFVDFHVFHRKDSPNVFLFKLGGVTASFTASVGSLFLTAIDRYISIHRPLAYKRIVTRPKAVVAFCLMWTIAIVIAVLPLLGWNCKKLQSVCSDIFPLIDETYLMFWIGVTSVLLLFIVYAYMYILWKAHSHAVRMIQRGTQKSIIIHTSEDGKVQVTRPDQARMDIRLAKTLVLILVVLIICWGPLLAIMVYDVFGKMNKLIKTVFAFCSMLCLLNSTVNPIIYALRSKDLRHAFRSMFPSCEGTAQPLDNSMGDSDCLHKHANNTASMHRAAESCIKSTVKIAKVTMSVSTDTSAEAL

[3] = target: T1, hCB1; experiment: Tango β-arrestin-2 recruitment, HTLA cells, CB1R; type: cell-based; set-up: expressed in transfected cells; host or cells: HTLA cells (gift of R. Axel), transient transfection
[4] = target: hCB2 (Homo sapiens, UniProt P34972); experiment: TRUPATH BRET2 GoA dissociation, HEK293T; type: cell-based; set-up: expressed in transfected cells; host or cells: HEK293T cells (ATCC: CRL-3216), transient co-transfection; conditions: for functional response, concentration-response point (FigS7e, normalized): Log[drug], replicate columns
hCB2, sequence (P34972 whole entry): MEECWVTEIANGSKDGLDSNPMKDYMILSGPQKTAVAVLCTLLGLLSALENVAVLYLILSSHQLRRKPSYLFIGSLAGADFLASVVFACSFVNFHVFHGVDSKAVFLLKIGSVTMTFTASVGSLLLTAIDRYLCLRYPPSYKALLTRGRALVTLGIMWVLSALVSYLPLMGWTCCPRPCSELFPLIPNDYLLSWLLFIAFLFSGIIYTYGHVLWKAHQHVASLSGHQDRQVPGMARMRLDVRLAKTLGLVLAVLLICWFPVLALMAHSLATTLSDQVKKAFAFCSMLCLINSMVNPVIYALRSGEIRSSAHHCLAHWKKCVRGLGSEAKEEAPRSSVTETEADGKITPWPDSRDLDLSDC

SMILES: COC(=O)[C@@H]1[C@@H]2CCC[C@@H]2CN1C(=O)c1cc(C)n(-c2cccc(C(F)(F)F)c2)n1 [‘6439]
- Gi1 hCB1 ([1]; Log [Compound] (M) -11.0177): -0.651
- GoB hCB1 ([1]; Log [Compound] (M) -11.0177): -1.557
- Gi1 hCB1 ([1]; Log [Compound] (M) -11.4949): -0.6201
- GoB hCB1 ([1]; Log [Compound] (M) -11.4949): 1.626
- Gi1 hCB1 ([1]; Log [Compound] (M) -11.9208): -0.3581
- GoB hCB1 ([1]; Log [Compound] (M) -11.9208): -0.04642
- Gi1 hCB1 ([1]; Log [Compound] (M) -12.3979): 0.9369
- GoB hCB1 ([1]; Log [Compound] (M) -12.3979): 0.02551
- Gi1 hCB1 ([1]; Log [Compound] (M) -12.8861): 1.631
- GoB hCB1 ([1]; Log [Compound] (M) -12.8861): 1.572
- Gi1 hCB1 ([1]; Log [Compound] (M) -13): -0.9439 and 1.0911
- GoB hCB1 ([1]; Log [Compound] (M) -13): -0.55 and -0.478
- pEC50 [95% CI] ([1]; hCB1 Gi1): 7.2 [7.1 – 7.2]
- Emax [95% CI] ([1]; hCB1 Gi1): 95 [93 – 96]
- pEC50 [95% CI] ([1]; hCB1 GoB): 7.2 [7.2 – 7.3]
- Emax [95% CI] ([1]; hCB1 GoB): 100 [99 – 101]
- pEC50 [95% CI] ([1]; hCB1 Gz): 6.5 [5.9 – 7.0]
- Emax [95% CI] ([1]; hCB1 Gz): 162 [125 –199]
- EC50 ([1]; hCB1 Gi1): 65.5 nM
- EC50 ([1]; hCB1 GoB): 60.9 nM
- EC50 ([1]; hCB1 Gz): 339 nM
- pKi [95% CI] ([2]; rCB1): 6.6 [6.4 – 6.8]
- Ki ([2]; read-out: Ki [95% CI], rCB1, [3H]-CP-55,940): 251 nM
- response, replicate values of concentration-response curve (FigS7f) ([3]; Log[drug], M = -4.52): -10.8475 and 13.7559 and -1.3408 and 30.128 and 34.5335 and 23.984 and 49.6721 and 28.9692 and 37.5272
- response, replicate values of concentration-response curve (FigS7f) ([3]; Log[drug], M = -5): 12.97 and -6.259 and -29.1004 and -18.7713 and 7.052 and 41.6727 and 31.5861 and -0.2412 and 17.8549 and 115.231 and 93.3593 and 69.1731
- response, replicate values of concentration-response curve (FigS7f) ([3]; Log[drug], M = -5.52): -14.7516 and -1.011 and 3.958 and 21.4628 and 26.9697 and -2.702 and -24.3795 and -8.092 and 23.1695 and 55.5034 and 99.9754 and 83.8088
- response at Log[drug], M -5.52 (FigS4e) ([3]; Log[drug], M = -5.52, individual replicates): 41.0598 and 42.1112 and 37.5809 and 36.0059 and 27.2068 and 23.0093 and 28.7041 and 23.0465 and 29.4359 and 31.2692 and 37.5598 and 31.3786
- response, replicate values of concentration-response curve (FigS7f) ([3]; Log[drug], M = -6): -7.78 and 1.232 and -8.579 and 16.9776 and 8.83 and 54.3719 and -17.0743 and 6.68 and 7.903 and 46.3174 and 81.0931 and 82.3871
- response at Log[drug], M -6 (FigS4e) ([3]; Log[drug], M = -6, individual replicates): 26.6779 and 28.882 and 31.009 and 30.2093 and 13.1731 and 19.3667 and 17.0092 and 18.0259 and 28.822 and 23.6752 and 23.7677 and 25.0376
- response, replicate values of concentration-response curve (FigS7f) ([3]; Log[drug], M = -6.52): 6.949 and 23.0344 and 26.685 and -30.9662 and -12.5345 and 9.44 and -7.445 and 20.4415 and 28.8782 and 41.1229 and 58.9482 and 96.877
- response at Log[drug], M -6.52 (FigS4e) ([3]; Log[drug], M = -6.52, individual replicates): 20.6989 and 18.775 and 18.227 and 14.6552 and 8.92 and 7.4713 and 4.648 and 5.829 and 9.707 and 10.7245 (2×) and 6.125
- response, replicate values of concentration-response curve (FigS7f) ([3]; Log[drug], M = -7): 31.5144 and 45.4069 and -35.2101 and -37.1897 and 1.93 and 0.2842 and 7.478 and -20.5097 and -17.3775 and 49.0331 and 80.6374 and 65.8924
- response at Log[drug], M -7 (FigS4e) ([3]; Log[drug], M = -7, individual replicates): 6.9232 and 8.043 and 10.8845 and 9.988 and 0.5556 and -1.865 and 0.4774 and 0.6189 and 2.467 and 3.148 and 2.635 and 4.207
- response, replicate values of concentration-response curve (FigS7f) ([3]; Log[drug], M = -7.52): -4.763 and -11.0123 and 28.1301 and -8.049 and -20.0319 and -11.1013 and -22.9649 and -19.4286 and 2.9819 and 44.3307 and 18.8869 and 45.9893
- response at Log[drug], M -7.52 (FigS4e) ([3]; Log[drug], M = -7.52, individual replicates): 6.822 and 6.684 and 9.44 and 7.52 and -3.124 and -0.9675 and -2.021 and -2.681 and -0.3421 and -0.05622 and 2.349 and 1.533
- response at Log[drug], M -8 (FigS4e) ([3]; Log[drug], M = -8, individual replicates): 5.884 and 9.216 and 9.707 and 9.61 and -1.035 and -0.111 and -1.31 and -2.509 and 0.4231 and 1.197 and 7.663 and 1.289
- response at Log[drug], M -8.52 (FigS4e) ([3]; Log[drug], M = -8.52, individual replicates): 12.6416 and 8.6666 and 7.701 and 11.5559 and 0.09453 and -1.259 and 2.111 and -1.3123 and 0.08722 and 0.8217 and 1.887 and 4.054
- response at Log[drug], M -9 (FigS4e) ([3]; Log[drug], M = -9, individual replicates): 6.15 and 10.745 and 10.5633 and 11.2546 and -2.544 and -0.8488 and 0.7085 and -0.4422 and 2.383 and 3.898 and 2.695 and 3.787
- response, replicate values of concentration-response curve (FigS7f) ([3]; Log[drug], M = -9.52): -11.8869 and 10.4349 and -26.9456 and -12.2027 and 18.9813 and -12.6008 and 11.5803
- response at Log[drug], M -9.52 (FigS4e) ([3]; Log[drug], M = -9.52, individual replicates): 7.12 and 7.04 and 8.157 and 9.473 and -0.8081 and -1.207 and -0.4666 and -1.821 and 4.375 and 2.502 and 0.01377 and 0.5555
- response, replicate values of concentration-response curve (FigS7f) ([3]; Log[drug], M = -10): 17.8121 and -5.27 and 8.977 and 22.6969 and 39.8414 and 41.3409 and 56.1992 and 5.841 and 17.8346 and -4.352 and 10.4482 and -28.6471
- response at Log[drug], M -10 (FigS4e) ([3]; Log[drug], M = -10, individual replicates): 8.321 and 7.43 and 8.2855 and 10.5544 and 1.814 and -2.821 and -0.4869 and -0.1291 and 2.41 and 4.577 and 0.8034 and 1.18
- response at Log[drug], M -10.52 (FigS4e) ([3]; Log[drug], M = -10.52, individual replicates): 8.25 and 8.706 and 9.026 and 10.1955 and -1.024 and 0.4442 and -0.6414 and 0.7573 and 1.648 and 0.8217 and 2.116 and 5.22
- response at Log[drug], M -11 (FigS4e) ([3]; Log[drug], M = -11, individual replicates): 3.256 and 4.195 and 6.189 and 8.184 and 0.0864 and 0.615 and -0.08844 and -0.05998 and 3.273 and 3.861 and 4.338 and 1.74
- response at Log[drug], M -11.52 (FigS4e) ([3]; Log[drug], M = -11.52, individual replicates): 5.192 and 4.514 and 4.754 and 3.593 and 1.237 and 0.5215 and -0.05998 and -1.081 and -0.5647 and 0.7391 and 0.6014 and 3.236
- response at Log[drug], M -12 (FigS4e) ([3]; Log[drug], M = -12, individual replicates): 0.3534 and 0.1806 and 0.07866 and -0.6126 and -2.04 and 1.058 and -0.6333 and 1.615 and -1.51 and 0.6106 and 0.6473 and 0.2525
- EC50 ([3]; hCB1, read-out: Tango ß-arrestin recruitment EC50): > 10000 nM
- EC50 [4]: 97.1 nM
- BRET2 + GoA Emax ([4]; % of CP-55,940): 81% [34 – 128]
- functional response, concentration-response point (FigS7e, normalized) ([4]; M = -5): 12.9272 and 15.9912 and 13.3933 and 14.1917 and 9.02 and 8.9115 and 9.964 and 9.677 and 16.1327 and 18.1614 and 17.7797 and 17.4918
- functional response, concentration-response point (FigS7e, normalized) ([4]; M = -5.52): 13.7946 and 14.1528 and 14.7009 and 15.5942 and 7.819 and 9.861 and 11.3112 and 10.248 and 13.5348 (2×) and 16.0255 and 15.2556
- functional response, concentration-response point (FigS7e, normalized) ([4]; M = -6): 13.5098 and 11.3391 and 11.5247 and 10.1826 and 7.139 and 7.697 and 10.1371 and 9.4066 and 13.2838 and 11.7338 and 12.1556 and 10.2207
- functional response, concentration-response point (FigS7e, normalized) ([4]; M = -6.52): 8.245 and 8.18 and 7.1316 and 8.582 and 5.652 and 4.45 and 4.542 and 4.824 and 8.731 and 6.786 and 7 and 7.151
- functional response, concentration-response point (FigS7e, normalized) ([4]; M = -7): 3.477 and 2.251 and 1.336 and 1.824 and 2.04 and 2.129 and 1.242 and 0.8388 and 2.913 and 2.96 and 2.756 and 1.624
- functional response, concentration-response point (FigS7e, normalized) ([4]; M = -7.52): 0.5378 and 0.2401 and 2.191 and 0.8701 and 1.326 and 0.4303 and 0.552 and 0.1165 and 1.032 and 0.8075 and 1.393 and 1.507
- functional response, concentration-response point (FigS7e, normalized) ([4]; M = -8): 0.2919 and 0.01139 and 0.3868 and 0.4645 and -0.1973 and 0.3762 and 0.9064 and 1.539 and 0.3891 and 0.4427 and 0.6703 and 0.6301
- functional response, concentration-response point (FigS7e, normalized) ([4]; M = -8.52): -0.3369 and -0.3039 and -0.3274 and -0.06361 and -0.07458 and 0.1558 and -0.006646 and 0.09378 and 0.05117 and 0.1425 and 0.3472 and 0.4422
- functional response, concentration-response point (FigS7e, normalized) ([4]; M = -12): 0.6997 and -0.1013 and -0.3699 and -0.2285

— PMC11882969 (Nature Communications, 2025)
